Measurements as given in patent US20250325536A1, “THERAPEUTIC USES OF GLP1R AGONISTS” (vTv Therapeutics LLC, priority 2018, published 2025).

Experiments:
[1] = test system: subjects (humans) with type 2 diabetes; assay: Phase 2 clinical study of API-1, 12 weeks of treatment, on stable metformin; assay type: in vivo, human; conditions: for placebo-subtracted decrease from baseline in HbA1c (%): p<0.001
Experimental: A Phase 2 clinical study was designed as a randomized, double-blind, placebo- controlled, parallel-group multi-center study evaluating the efficacy and safety following 12 weeks of treatment with API-1 in subjects (humans) with type 2 diabetes who were being treated with a stable dose of metformin. Subjects were randomly assigned to one of three treatment groups, API-1 150 mg BID, API-1 150 mg QPM, or placebo with approximately n=52/group. A total of approximately 156 patients were to be randomized into this study and 174 were ultimately randomized. Subjects were enrolled and randomized according to a fixed randomization scheme blocked by study investigative site. Severity of diabetes was determined by HbA1c measures (7.5% to 10%) at screening, confirmed at Baseline, and HbA1c was used as a stratification variable in the randomization scheme: HbA1c less than 8% and 8% or more. Randomization was to be a balanced allocation (1:1:1) among the three treatment groups. Dropouts were not to be replaced. Statistical analyses for topline results included placebo-subtracted change from baseline (LSM-CFB) for HbA1c (primary endpoint) and body weight (secondary endpoint) as well as a post hoc concentration/effect analysis to evaluate the effect of exposure on efficacy.

[2] = test system: subjects (humans) with T2DM; assay: Phase 2 dose-ranging study of API-2, 12 weeks of treatment; assay type: in vivo, human; conditions: Target population (Baseline 8-11%)
Experimental: A Phase 2 study was designed as a randomized, double-blind, placebo controlled, dose-ranging, parallel group study evaluating the efficacy and safety following 12 weeks of treatment with API-2 in subjects (humans) with T2DM. The study was conducted in 2 parts: Part A and Part B. Part A and Part B were identical except for the dose levels administered. In Part A, subjects received one of two treatments administered orally for 12 weeks: API-2 400 mg QD (n=51) or matching placebo (n=26). In Part B, subjects received one of three treatments administered orally for 12 weeks: API-2 200 mg QD (n=28), API-2 800 mg QD (n=56), or matching placebo (n=26).

[3] = 150 mg once daily (QPM) arm, Week 12, completers, 2.2 mg/kg to 1.0 mg/kg
[4] = 150 mg twice daily (BID) arm, Week 12, completers, 2.2 mg/kg to 4.8 mg/kg

CC[C@@H](c1ccccc1)N1Cc2cc3c(cc2C[C@H]1C(=O)N[C@@H](Cc1ccc(-c2ccnc(C)c2C)cc1)C(=O)O)OC[C@H](c1ccc(OCc2ccc(Cl)c(Cl)c2)cc1)O3.Cl.Cl [API-1, (S)-2-{[(3S,8S)-3-[4-(3,4-dichloro-benzyloxy)-phenyl]-7-((S)-1-phenyl-propyl)-2,3,6,7,8,9-hexahydro-[1,4]dioxino[2,3-g]isoquinoline-8-carbonyl]-amino}-3-[4-(2,3-dimethyl-pyridin-4-yl)-phenyl]-propionic acid hydrochloride (1:2)]
placebo-subtracted decrease from baseline in HbA1c (%) ([1]; 150 mg once daily (QPM) arm, 12 weeks): 0.9±0.2% | dose (mg/kg) response of change from baseline in FPG (FIG. 3) [1, 3]: increased as the dose was reduced | dose (mg/kg) response of change from baseline in HbA1c (FIG. 1) [1, 3]: increased as the dose was reduced | weight loss (average) ([1]; 150 mg once daily arm, 12 weeks, p=0.08): 0.9 kg | placebo-subtracted decrease from baseline in HbA1c (%) ([1]; 150 mg twice daily (BID) arm, 12 weeks): 0.7±0.2% | dose (mg/kg) response of change from baseline in FPG (FIG. 4) [1, 4]: almost unchanged | dose (mg/kg) response of change from baseline in HbA1c (FIG. 2) [1, 4]: almost unchanged | weight loss (average) ([1]; 150 mg twice daily arm, 12 weeks): 0.6 kg | Mean Change from Baseline HbA1c (%) ([1]; group 1-1.35 mg/kg (<1.35), Week 4): −0.57% | Mean Change from Baseline HbA1c (%) ([1]; group 1-1.35 mg/kg (<1.35), Week 8): −1.26% | Mean Change from Baseline HbA1c (%) ([1]; group 1-1.35 mg/kg (<1.35), Week 12): −1.71% | Mean Change from Baseline HbA1c (%) ([1]; group 1.35-1.64 mg/kg, Week 4): −0.35% | Mean Change from Baseline HbA1c (%) ([1]; group 1.35-1.64 mg/kg, Week 8): −0.85% | Mean Change from Baseline HbA1c (%) ([1]; group 1.35-1.64 mg/kg, Week 12): −0.90% | Mean Change from Baseline HbA1c (%) ([1]; group 1.65-1.75 mg/kg, Week 4): −0.21% | Mean Change from Baseline HbA1c (%) ([1]; group 1.65-1.75 mg/kg, Week 8): −0.51% | Mean Change from Baseline HbA1c (%) ([1]; group 1.65-1.75 mg/kg, Week 12): −0.75% | Mean Change from Baseline HbA1c (%) ([1]; group 1.76-2.2 mg/kg (>1.75), Week 4): −0.31% | Mean Change from Baseline HbA1c (%) ([1]; group 1.76-2.2 mg/kg (>1.75), Week 8): −0.43% | Mean Change from Baseline HbA1c (%) ([1]; group 1.76-2.2 mg/kg (>1.75), Week 12): −0.55% | placebo-subtracted decrease from baseline in fasting plasma glucose ([1]; once daily arm, 12 weeks): about 16 mg/dL | reduction from baseline in HbA1c ([1]; patients dosed with lower than 1.35 mg/kg, 12 weeks, p<0.01): 1.7% | reduction from baseline in body weight ([1]; patients dosed with lower than 1.35 mg/kg, 12 weeks, p<0.05): 3.7 kg | placebo-subtracted decrease from baseline in fasting plasma glucose ([1]; twice daily arm, 12 weeks): ~17 mg/dL

CC[C@@H](c1ccccc1)N1Cc2cc3c(cc2C[C@H]1C(=O)N[C@@H](Cc1ccc(-c2ccc(C#N)cc2)cc1)C(=O)O)N(C)C(=O)[C@@H](c1ccc(OCc2ccc(Cl)c(Cl)c2)cc1)O3 [API-2, (S)-3-(4′-cyano-biphenyl-4-yl)-2-{[(3R,7S)-3-[4-(3,4-dichlorobenzyloxy)-phenyl]-1-methyl-2-oxo-6-((S)-1-phenyl-propyl)-2,3,5,6,7,8-hexahydro-1H-4-oxa-1,6-diaza-anthracene-7-carbonyl]-amino}-propionic acid]
Mean Change from Baseline in HbA1c (%) ([2]; group 1.4-2.7 mg/kg (<2.7), Week 4): −0.37% | Mean Change from Baseline in HbA1c (%) ([2]; group 1.4-2.7 mg/kg (<2.7), Week 8): −0.69% | Mean Change from Baseline in HbA1c (%) ([2]; group 1.4-2.7 mg/kg (<2.7), Week 12): −0.79% | Mean Change from Baseline in HbA1c (%) ([2]; group 2.8-4.0 mg/kg, Week 4): −0.47% | Mean Change from Baseline in HbA1c (%) ([2]; group 2.8-4.0 mg/kg, Week 8): −0.86% | Mean Change from Baseline in HbA1c (%) ([2]; group 2.8-4.0 mg/kg, Week 12): −1.09% | Mean Change from Baseline in HbA1c (%) ([2]; group 4.1-5.0 mg/kg, Week 4): −0.36% | Mean Change from Baseline in HbA1c (%) ([2]; group 4.1-5.0 mg/kg, Week 8): −0.78% | Mean Change from Baseline in HbA1c (%) ([2]; group 4.1-5.0 mg/kg, Week 12): −0.85% | Mean Change from Baseline in HbA1c (%) ([2]; group 5.1-12.4 mg/kg (>5.0), Week 4): −0.26% | Mean Change from Baseline in HbA1c (%) ([2]; group 5.1-12.4 mg/kg (>5.0), Week 8): −0.34% | Mean Change from Baseline in HbA1c (%) ([2]; group 5.1-12.4 mg/kg (>5.0), Week 12): −0.34%
